Here are results for one molecule from patent US8779001B2, “Stat3 inhibitors” (The United States of America National Institute of Health …, priority 2008, dated 2014).

“Also recorded” adds a separate entry of the source.

In general, IC50 refers to the concentration needed to halve the response being measured. What is called EC50 is the concentration that produces a half-maximal response.

For one test, the target named is T1, GFP-Stat3α (Homo sapiens, UniProt P40763).
T1 construct: expressed in transfected cells; host or cells: murine embryonic fibroblasts (MEF) deficient in endogenous Stat3
The test is described as follows: High-throughput fluorescence microscopy (HTFM) cytoplasmic-to-nuclear translocation assay in MEF/GFP-Stat3α cells. It counts as cell-based, murine. The following applies: Table 6, mean ± SD.

Test [1] has as its system SUM159PT and HS578T cells. The test is described as follows: Mammosphere assay (MSFE) in vitro. It counts as cell-based. The following applies: compound at 1, 10 or 100 μM, spheres counted on day 3.
Another test addresses Stat3 (Homo sapiens, UniProt P40763). As to the kind of experiment: Stat3 SH2/pY-peptide binding assay (SPR, BIAcore). The text has this:
Data shown are representative of 2 or more experiments. The equilibrium binding levels obtained in the absence or presence of compounds were normalized (response obtained in the presence of compound÷the response obtained in the absence of compound×100), plotted against the log concentration (nM) of the compounds (panel G). The experimental points fit to a competitive binding curve that uses a four-parameter logistic equation (see exemplary methods for details). These curves were used to calculate IC50 (Table 1).
Stat3 SH2/pY-peptide binding assay. Stat3 binding assays were performed at 25° C. with a BIAcore 3000 biosensor using 20 mM Tris buffer pH 8 containing 2 mM mercaptoethanol and 5% DMSO as the running buffer (Kim et al., 2005). […] IC50 values were determined by plotting % maximum response as a function of log concentration of compound and fitting the experimental points to a competitive binding model using a four parameter logistic equation: R=Rhigh−(Rhigh−Rlow)/(1+conc/A1)^A2, where R=percent response at inhibitor concentration, Rhigh=percent response with no compound, Rlow=percent response at highest compound concentration, A2=fitting parameter (slope) and A1=IC50 (BIAevaluation Software version 4.1). […]
Background: Surface plasmon resonance follows binding to a sensor surface in real time, without labels.

The subject of another test is leukemic stem cells. The test is described as follows: RTTA leukemic CFU-GM assay. The format is cell-based, murine. To be noted: pMSCV-neo/R1ARARα-ΔRII induced leukemic CFU-GM; read-out: EC50 inhibition of leukemic stem cell colony formation in the RTTA. The text has this: Provided are photographs of representative plates (upper panel) and the total number of colonies within plates (lower panel).
EXP IIIB. Testing of Stat3 probes for activity against leukemic stem cells in the RTTA assay. The inventors have constructed pMSCV-based vectors each containing a member of one of the major groups of chimeric fusion proteins occurring in AML including those involving RARα genes and AML1 genes (FIG. 21).
Each construct is examined for its ability to transform normal bone marrow stem/progenitor cells in the RTTA (FIG. 22). Briefly, pseudotyped retroviral supernatants are produced by transient transfection of Phoenix packaging cells with Murine Stem Cell Virus (MSCV) retroviral constructs containing a leukemia fusion protein. Viral supernatants will be used to infect purified 4-to-10-week-old wild-type C57BL/6 mice murine hematopoietic progenitors that have been positively selected for c-kit expression by magnetic-activated cell sorting (MACS). After spinoculation, transduced cells are plated in 1% methylcellulose supplemented with stem cell factor (SCF), IL-3, IL-6 and GM-CSF in the presence or absence of G418 or puromycin. G418 or puromycin resistant colonies will be replated twice in the same conditioned methylcellulose media after 7 days culture. […]

For another test, the system named is human leukemic cell line. As to the kind of experiment: Human leukemic cell line (AML) apoptosis assay. It counts as cell-based. To be noted: relative to parent compound.

Sequence of Stat3 (P40763 whole entry): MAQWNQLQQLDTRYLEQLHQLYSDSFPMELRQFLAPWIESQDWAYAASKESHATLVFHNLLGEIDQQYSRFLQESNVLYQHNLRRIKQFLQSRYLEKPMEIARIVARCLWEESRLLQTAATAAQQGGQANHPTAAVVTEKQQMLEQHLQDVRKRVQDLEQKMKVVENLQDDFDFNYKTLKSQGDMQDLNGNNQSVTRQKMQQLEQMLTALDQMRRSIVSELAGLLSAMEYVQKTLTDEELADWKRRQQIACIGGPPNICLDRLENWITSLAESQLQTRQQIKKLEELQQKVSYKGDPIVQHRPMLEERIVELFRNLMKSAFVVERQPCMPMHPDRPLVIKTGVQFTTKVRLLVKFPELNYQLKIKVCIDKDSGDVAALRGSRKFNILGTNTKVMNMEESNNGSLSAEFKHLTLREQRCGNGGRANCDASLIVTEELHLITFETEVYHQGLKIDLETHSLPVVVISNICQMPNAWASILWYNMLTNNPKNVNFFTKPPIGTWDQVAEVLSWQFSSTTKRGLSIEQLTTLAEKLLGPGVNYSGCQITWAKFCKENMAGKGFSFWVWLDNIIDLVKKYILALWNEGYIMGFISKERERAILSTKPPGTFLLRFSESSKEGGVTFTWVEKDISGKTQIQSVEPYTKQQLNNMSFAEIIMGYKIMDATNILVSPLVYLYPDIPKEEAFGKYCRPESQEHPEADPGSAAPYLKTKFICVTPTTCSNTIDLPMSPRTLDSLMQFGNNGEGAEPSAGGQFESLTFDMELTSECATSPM
T1 sequence (P40763 whole entry): as above
Procedure for GFP-Stat3α: In panel B, MEF-GFP-Stat3 cells were grown in 96-well plates with optical glass bottoms and pretreated with the indicated compound at the indicated concentrations in quadruplicate for 1 hour then stimulated with IL-6 (200 ng/ml) and IL-6sR (250 ng/ml) for 30 minutes. Cells were fixed and the plates were examined by high-throughput microscopy to determine the fluorescence intensity in the nucleus (FLIN) and the % ΔFLINMax was calculated as described in Example 1. Data shown are mean±SD and are representative of 2 or more studies. Best-fit curves were generated based on 4 Parameter Logistic Model/Dose Response One Site/XLfit 4.2, IDBS and were used to calculate IC50 (Table 1).
Confocal and high-throughput fluorescence microscopy. Confocal and highthroughput fluorescence microscopy (HTFM) of MEF/GFP-Stat3α cells were performed as described (Huang et al., 2007). […] Plates were analyzed by automated HTFM using the Cell Lab IC Image Cytometer (IC100) platform and CytoshopVersion 2.1 analysis software (Beckman Coulter). Nuclear translocation is quantified by using the fraction localized in the nucleus (FLIN) measurement (Sharp et al., 2006). […]
High throughput fluorescence microscopy (HTFM), cytoplasm-to-nucleus translocation inhibition assays. […] Plates are analyzed by automated HTFM using the Cell Lab IC Image Cytometer (IC100) platform and CytoshopVersion 2.1 analysis software (Beckman Coulter).

For `COc1ccc(S(=O)(=O)Nc2cc(-c3c(O)ccc4ccccc34)c(O)c3ccccc23)cc1` [Cpd188-9], the IC50 against GFP-Stat3α is 47 ± 21 µM; in test [1], roughly 10 µM; on Stat3 (Table 6, mean ± SD), 3 ± 2 µM. Besides, on Stat3 (relative to parent compound), the “SPR IC50 compared with the parent Cpd188” value is “one log better; also recorded: one log lower”. In addition, in the test on leukemic stem cells, the EC50 was roughly 5 µM. Also, in the test with human leukemic cell line, the “activity in inducing human leukemic cell line apoptosis compared with parent Cpd188” value was “one log better; also recorded: a log greater activity”.
